Data from patent US12377175B2, “Trifunctional constructs with tunable pharmacokinetics useful in imaging and anti-tumor therapies” (Cornell University, priority 2016, dated 2025).
“And” between values parts separate entries of the source, which are not always exact repeats. Equal entries are not always repeated.

Tested on: LNCaP xenograft tumor-bearing mice
Test: Biodistribution of 225Ac-macropa-RPS-070 in LNCaP xenograft mice
Format: in vivo, mouse
Description: Cell Culture. […] Cell culture supplies were from Invitrogen unless otherwise noted.
Inoculation of Mice with Xenografts. All animal studies were approved by the Institutional Animal Care and Use Committee of Weill Cornell Medicine and were undertaken in accordance with the guidelines set forth by the USPHS Policy on Humane Care and Use of Laboratory Animals. Animals were housed under standard conditions in approved facilities with 12 h light/dark cycles. Food and water was provided ad libitum throughout the course of the studies. Hairless male nu/nu mice were purchased from the Jackson Laboratory. For inoculation in mice, LNCaP cells were suspended at 4×10^7 cells/mL in a 1:1 mixture of PBS:Matrigel (BD Biosciences). Each mouse was injected in the left flank with 0.25 mL of the cell suspension. Biodistributions were conducted when tumors were in the range 100-400 mm^3.
Biodistribution of […] in LNCaP xenograft mice. Fifteen LNCaP xenograft tumor-bearing mice (5 per time point) were injected intravenously with a bolus injection of 85-95 kBq and 100 ng ([…]) of each ligand. The mice were sacrificed by cervical dislocation at 4, 24 and 96 h post injection. A blood sample was removed, and a full biodistribution study was conducted on the following organs (with contents): heart, lungs, liver, small intestine, large intestine, stomach, spleen, pancreas, kidneys, muscle, bone, and tumor. Tissues were weighed and counted on a 2470 Wizard Automatic Gamma Counter (Perkin Elmer). 1% ID/mL samples were counted prior to and following each set of tissue samples to enable decay correction to be undertaken. Counts were corrected for decay and for activity injected, and tissue uptake was expressed as percent injected dose per gram (% ID/g). Standard error measurement was calculated for each data point.

[1] = 4 h after i.v. injection, n = 5

## O=C(O)CC[C@H](NC(=O)N[C@@H](CCCCNC(=O)Nc1cccc(-c2cn(CCOCCOCCOCCOCCOCCOCCC(=O)N[C@@H](CCCCNC(=S)Nc3cc(CN4CCOCCOCCN(Cc5cccc(C(=O)[O-])n5)CCOCCOCC4)nc(C(=O)[O-])c3)C(=O)N[C@@H](CCCCNC(=O)Cc3ccc(I)cc3)C(=O)O)nn2)c1)C(=O)O)C(=O)O.[225Ac+3] [225Ac-macropa-RPS-070]
4 h after i.v. injection
  Organ distribution, Blood, individual mice 1-5: 0.9065 % ID/g and 0.5525 % ID/g and 1.118 % ID/g and 0.8276 % ID/g and 0.6564 % ID/g
  Organ distribution, Bone, individual mice 1-5: 1.149 % ID/g and 1.123 % ID/g and 1.487 % ID/g and 0.9204 % ID/g and 1.155 % ID/g
  Organ distribution, Heart, individual mice 1-5: 0.7576 % ID/g and 0.6532 % ID/g and 0.774 % ID/g and 0.7515 % ID/g and 0.6565 % ID/g
  Organ distribution, Kidneys, individual mice 1-5: 65.5884 % ID/g and 20.5274 % ID/g and 108.233 % ID/g and 33.654 % ID/g and 33.0707 % ID/g
  Organ distribution, Large Intestine, individual mice 1-5: 1.363 % ID/g and 0.6516 % ID/g and 1.274 % ID/g and 0.9166 % ID/g and 0.819 % ID/g
  Organ distribution, Liver, individual mice 1-5: 1.622 % ID/g and 1.346 % ID/g and 1.742 % ID/g and 1.681 % ID/g and 1.3957 % ID/g
  Organ distribution, Lungs, individual mice 1-5: 0.9956 % ID/g and 0.6067 % ID/g and 1.2979 % ID/g and 0.9859 % ID/g and 0.8866 % ID/g
  Organ distribution, Muscle, individual mice 1-5: 0.6801 % ID/g and 0.8058 % ID/g and 0.7282 % ID/g and 0.6767 % ID/g and 0.6562 % ID/g
  Organ distribution, Pancreas, individual mice 1-5: 0.5549 % ID/g and 0.4164 % ID/g and 0.5532 % ID/g and 0.4675 % ID/g and 0.6604 % ID/g
  Organ distribution, Small Intestine, individual mice 1-5: 0.1998 % ID/g and 0.1628 % ID/g and 0.3104 % ID/g and 0.2441 % ID/g and 0.1709 % ID/g
  Organ distribution, Spleen, individual mice 1-5: 1.409 % ID/g and 0.708 % ID/g and 1.613 % ID/g and 1.108 % ID/g and 0.8756 % ID/g
  Organ distribution, Stomach, individual mice 1-5: 0.3396 % ID/g and 0.2471 % ID/g and 0.3042 % ID/g and 0.4109 % ID/g and 0.2122 % ID/g
  Organ distribution, Tumor, individual mice 1-5: 6.732 % ID/g and 10.7309 % ID/g and 23.8367 % ID/g and 15.3682 % ID/g and 7.504 % ID/g
[1]
  Organ distribution, Blood, Mean: 0.8122 % ID/g
  Organ distribution, Bone, Mean: 1.167 % ID/g
  Organ distribution, Heart, Mean: 0.7189 % ID/g
  Organ distribution, Kidneys, Mean: 52±16 % ID/g and 52.2146 % ID/g
  Organ distribution, Large Intestine, Mean: 1.005 % ID/g
  Organ distribution, Liver, Mean: 1.557 % ID/g
  Organ distribution, Lungs, Mean: 0.9469 % ID/g
  Organ distribution, Muscle, Mean: 0.7094 % ID/g
  Organ distribution, Pancreas, Mean: 0.5305 % ID/g
  Organ distribution, Small Intestine, Mean: 0.2176 % ID/g
  Organ distribution, Spleen, Mean: 1.143 % ID/g
  Organ distribution, Stomach, Mean: 0.3028 % ID/g
  Organ distribution, Tumor, Mean: 13±3 % ID/g and 12.8342 % ID/g
24 h after i.v. injection
  Organ distribution, Blood, individual mice 1-5: 0.3483 % ID/g and 0.3132 % ID/g and 0.2208 % ID/g and 0.2945 % ID/g and 0.277 % ID/g
  Organ distribution, Bone, individual mice 1-5: 1.273 % ID/g and 1.066 % ID/g and 0.8394 % ID/g and 1.006 % ID/g and 0.6976 % ID/g
  Organ distribution, Heart, individual mice 1-5: 0.5226 % ID/g and 0.5633 % ID/g and 0.4521 % ID/g and 0.4791 % ID/g and 0.4648 % ID/g
  Organ distribution, Kidneys, individual mice 1-5: 4.988 % ID/g and 4.257 % ID/g and 3.946 % ID/g and 3.665 % ID/g and 4.103 % ID/g
  Organ distribution, Large Intestine, individual mice 1-5: 0.133 % ID/g and 0.1259 % ID/g and 0.1325 % ID/g and 0.1343 % ID/g and 0.1318 % ID/g
  Organ distribution, Liver, individual mice 1-5: 1.578 % ID/g and 1.476 % ID/g and 1.138 % ID/g and 1.143 % ID/g and 1.485 % ID/g
  Organ distribution, Lungs, individual mice 1-5: 0.5378 % ID/g and 0.4508 % ID/g and 0.4608 % ID/g and 0.4286 % ID/g and 0.4483 % ID/g
  Organ distribution, Muscle, individual mice 1-5: 0.6119 % ID/g and 0.5149 % ID/g and 0.4483 % ID/g and 0.7803 % ID/g and 0.4458 % ID/g
  Organ distribution, Pancreas, individual mice 1-5: 0.3985 % ID/g and 0.3912 % ID/g and 0.5035 % ID/g and 0.3332 % ID/g and 0.3194 % ID/g
  Organ distribution, Small Intestine, individual mice 1-5: 0.08784 % ID/g and 0.09914 % ID/g and 0.08822 % ID/g and 0.09466 % ID/g and 0.1037 % ID/g
  Organ distribution, Spleen, individual mice 1-5: 0.6208 % ID/g and 0.6576 % ID/g and 0.6201 % ID/g and 0.5768 % ID/g and 0.5855 % ID/g
  Organ distribution, Stomach, individual mice 1-5: 0.1296 % ID/g and 0.1212 % ID/g and 0.1119 % ID/g and 0.1467 % ID/g and 0.1533 % ID/g
  Organ distribution, Tumor, individual mice 1-5: 11.6163 % ID/g and 9.269 % ID/g and 7.502 % ID/g and 4.414 % ID/g and 8.047 % ID/g
